# Several values for one entry are separate records, joined by “and”; a condition that tells them apart may be missing. Identical values can stand only once.
# Assays:
# [1] = target: T1, Bromodomain-containing protein 4 (Homo sapiens, UniProt O60885); assay: Alphascreen assay. Binding to BRD4A (domain start/stop: N44-E168) by alphascreen assay
# CREB-binding protein [2] = target: T2, CREB-binding protein (Homo sapiens, UniProt Q92793); assay: Alphascreen assay. Binding to CREBBPA (domain start/stop: R1081-G1197) by alphascreen assay
# [3] = target: Bromodomain-containing protein 3 (Homo sapiens) (UniProt Q15059); assay: Thermal Shift Assay. Domain start/stop: P24-E144; conditions: Compound concentration 10.0 uM, Protein concentration 2.0 uM
# Sequence of Bromodomain-containing protein 3 (Homo sapiens) (Q15059 2-726 limits assumed): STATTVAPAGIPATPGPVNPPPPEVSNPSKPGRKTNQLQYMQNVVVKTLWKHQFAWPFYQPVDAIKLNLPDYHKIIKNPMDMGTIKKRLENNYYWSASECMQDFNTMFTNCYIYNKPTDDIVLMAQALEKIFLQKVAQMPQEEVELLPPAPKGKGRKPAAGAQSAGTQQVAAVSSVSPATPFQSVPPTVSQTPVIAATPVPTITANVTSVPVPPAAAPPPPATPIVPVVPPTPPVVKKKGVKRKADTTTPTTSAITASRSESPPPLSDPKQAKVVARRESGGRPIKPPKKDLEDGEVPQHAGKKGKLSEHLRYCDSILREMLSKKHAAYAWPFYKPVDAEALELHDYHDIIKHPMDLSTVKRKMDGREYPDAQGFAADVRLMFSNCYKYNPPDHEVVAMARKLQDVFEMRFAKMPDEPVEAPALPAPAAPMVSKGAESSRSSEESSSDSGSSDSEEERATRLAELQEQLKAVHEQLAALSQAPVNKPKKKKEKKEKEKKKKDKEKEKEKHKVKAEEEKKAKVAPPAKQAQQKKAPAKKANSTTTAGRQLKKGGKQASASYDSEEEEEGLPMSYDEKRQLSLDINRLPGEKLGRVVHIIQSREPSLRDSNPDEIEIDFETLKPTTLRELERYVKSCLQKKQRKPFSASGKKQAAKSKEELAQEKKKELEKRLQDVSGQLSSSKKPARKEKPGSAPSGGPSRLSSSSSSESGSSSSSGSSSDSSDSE
# [4] = target: Protein polybromo-1 (Homo sapiens) (UniProt Q86U86); assay: Thermal Shift Assay. Domain start/stop: H23-D159; conditions: Compound concentration 10.0 uM, Protein concentration 2.0 uM
# Sequence of Protein polybromo-1 (Homo sapiens) (Q86U86 whole entry): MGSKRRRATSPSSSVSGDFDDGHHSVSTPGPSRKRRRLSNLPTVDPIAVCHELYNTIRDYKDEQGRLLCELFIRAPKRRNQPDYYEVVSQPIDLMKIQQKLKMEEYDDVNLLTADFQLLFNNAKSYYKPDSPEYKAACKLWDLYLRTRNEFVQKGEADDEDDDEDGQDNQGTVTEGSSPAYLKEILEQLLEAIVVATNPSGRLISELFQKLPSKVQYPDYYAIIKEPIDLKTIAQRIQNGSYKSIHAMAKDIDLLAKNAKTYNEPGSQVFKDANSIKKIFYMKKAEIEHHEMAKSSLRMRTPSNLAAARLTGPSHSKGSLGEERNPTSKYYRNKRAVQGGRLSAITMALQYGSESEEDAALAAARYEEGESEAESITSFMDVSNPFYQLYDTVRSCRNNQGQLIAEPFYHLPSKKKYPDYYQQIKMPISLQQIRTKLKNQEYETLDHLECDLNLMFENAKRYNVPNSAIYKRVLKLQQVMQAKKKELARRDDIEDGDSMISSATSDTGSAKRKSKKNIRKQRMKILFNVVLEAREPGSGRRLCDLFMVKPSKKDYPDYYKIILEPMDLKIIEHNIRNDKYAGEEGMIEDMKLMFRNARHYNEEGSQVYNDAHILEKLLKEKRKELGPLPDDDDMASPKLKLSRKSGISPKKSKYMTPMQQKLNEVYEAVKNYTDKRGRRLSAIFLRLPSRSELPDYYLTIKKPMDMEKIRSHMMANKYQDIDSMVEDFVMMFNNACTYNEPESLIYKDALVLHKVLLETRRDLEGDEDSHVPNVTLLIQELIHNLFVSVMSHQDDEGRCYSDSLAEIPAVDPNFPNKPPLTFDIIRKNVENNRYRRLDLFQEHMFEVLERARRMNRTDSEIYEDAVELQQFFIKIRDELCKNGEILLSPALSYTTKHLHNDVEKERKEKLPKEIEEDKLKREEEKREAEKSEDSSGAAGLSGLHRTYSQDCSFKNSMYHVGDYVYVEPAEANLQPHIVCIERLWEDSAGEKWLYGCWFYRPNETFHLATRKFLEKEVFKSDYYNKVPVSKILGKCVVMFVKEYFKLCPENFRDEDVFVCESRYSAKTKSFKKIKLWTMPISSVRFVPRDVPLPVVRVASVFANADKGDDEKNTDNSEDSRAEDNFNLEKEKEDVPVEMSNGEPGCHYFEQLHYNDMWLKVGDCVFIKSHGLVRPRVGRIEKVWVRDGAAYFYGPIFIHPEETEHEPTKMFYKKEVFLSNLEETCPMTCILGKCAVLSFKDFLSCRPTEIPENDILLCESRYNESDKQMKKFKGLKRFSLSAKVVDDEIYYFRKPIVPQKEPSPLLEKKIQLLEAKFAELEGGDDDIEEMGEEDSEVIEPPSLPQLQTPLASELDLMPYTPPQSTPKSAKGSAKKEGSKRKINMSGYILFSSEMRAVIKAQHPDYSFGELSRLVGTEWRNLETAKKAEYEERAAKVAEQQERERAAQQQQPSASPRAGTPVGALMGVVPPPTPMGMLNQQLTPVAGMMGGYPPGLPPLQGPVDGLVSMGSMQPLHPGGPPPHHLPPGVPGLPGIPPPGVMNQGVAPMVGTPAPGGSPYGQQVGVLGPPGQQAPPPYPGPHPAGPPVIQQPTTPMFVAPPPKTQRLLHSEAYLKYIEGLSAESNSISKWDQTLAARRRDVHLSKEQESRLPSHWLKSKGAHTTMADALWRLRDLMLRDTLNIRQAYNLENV
# [5] = target: Protein polybromo-1 (Homo sapiens) (UniProt Q86U86); assay: Thermal Shift Assay. Domain start/stop: R487-D598; conditions: Compound concentration 10.0 uM, Protein concentration 2.0 uM
# [6] = target: Tripartite motif-containing protein 66 (Homo sapiens) (UniProt O15016); assay: Thermal Shift Assay. Domain start/stop: M1091-S1218; conditions: Compound concentration 10.0 uM, Protein concentration 2.0 uM
# [7] = target: PH-interacting protein (Homo sapiens) (UniProt Q8WWQ0); conditions: Compound concentration 50.0 uM, Protein concentration 0.025 uM
# [8] = target: Histone-lysine N-methyltransferase ASH1L (Homo sapiens) (UniProt Q9NR48); conditions: Compound concentration 10.0 uM, Protein concentration 2.0 uM
# [9] = target: ATPase family AAA domain-containing protein 2 (Homo sapiens) (UniProt Q6PL18); conditions: Compound concentration 10.0 uM, Protein concentration 2.0 uM
# [10] = target: ATPase family AAA domain-containing protein 2B (Homo sapiens) (UniProt Q9ULI0); conditions: Compound concentration 10.0 uM, Protein concentration 2.0 uM
# [11] = target: Bromodomain adjacent to zinc finger domain protein 1A (Homo sapiens) (UniProt Q9NRL2); conditions: Compound concentration 10.0 uM, Protein concentration 2.0 uM
# [12] = target: Bromodomain adjacent to zinc finger domain protein 2A (Homo sapiens) (UniProt Q9UIF9); conditions: Compound concentration 10.0 uM, Protein concentration 2.0 uM
# [13] = target: Bromodomain adjacent to zinc finger domain protein 2B (Homo sapiens) (UniProt Q9UIF8); conditions: Compound concentration 10.0 uM, Protein concentration 2.0 uM
# [14] = target: Nucleosome-remodeling factor subunit BPTF (Homo sapiens) (UniProt Q12830); conditions: Compound concentration 10.0 uM, Protein concentration 2.0 uM
# [15] = target: Bromodomain-containing protein 1 (Homo sapiens) (UniProt O95696); conditions: Compound concentration 10.0 uM, Protein concentration 2.0 uM
# [16] = target: Bromodomain-containing protein 2 (Homo sapiens) (UniProt P25440); conditions: Compound concentration 10.0 uM, Protein concentration 2.0 uM
# Sequence of Bromodomain-containing protein 2 (Homo sapiens) (P25440 whole entry, looked up): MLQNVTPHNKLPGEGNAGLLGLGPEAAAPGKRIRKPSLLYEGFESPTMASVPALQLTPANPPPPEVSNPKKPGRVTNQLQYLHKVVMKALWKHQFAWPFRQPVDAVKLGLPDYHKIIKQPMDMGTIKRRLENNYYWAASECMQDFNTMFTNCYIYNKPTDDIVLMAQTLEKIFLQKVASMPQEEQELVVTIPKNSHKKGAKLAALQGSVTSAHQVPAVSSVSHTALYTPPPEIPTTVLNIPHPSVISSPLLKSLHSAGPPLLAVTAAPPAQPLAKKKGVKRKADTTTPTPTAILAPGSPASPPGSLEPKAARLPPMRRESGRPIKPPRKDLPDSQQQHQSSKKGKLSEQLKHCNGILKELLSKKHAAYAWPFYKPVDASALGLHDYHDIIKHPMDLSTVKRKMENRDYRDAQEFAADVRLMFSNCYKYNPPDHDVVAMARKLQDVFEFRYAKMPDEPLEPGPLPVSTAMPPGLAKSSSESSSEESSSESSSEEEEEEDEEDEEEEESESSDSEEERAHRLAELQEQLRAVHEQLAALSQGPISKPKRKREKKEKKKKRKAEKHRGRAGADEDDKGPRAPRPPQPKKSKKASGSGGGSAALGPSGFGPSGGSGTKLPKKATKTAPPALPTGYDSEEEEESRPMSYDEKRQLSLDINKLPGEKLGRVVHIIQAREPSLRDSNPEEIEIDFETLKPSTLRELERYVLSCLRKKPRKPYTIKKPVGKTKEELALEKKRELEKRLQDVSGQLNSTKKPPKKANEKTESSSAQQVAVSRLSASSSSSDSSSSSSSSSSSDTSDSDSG
# [17] = target: Bromodomain-containing protein 2 (Homo sapiens) (UniProt P25440); conditions: Compound concentration 10.0 uM, Protein concentration 2.0 uM; remark: listed apart in the source
# [18] = target: Bromodomain-containing protein 3 (Homo sapiens) (UniProt Q15059); conditions: Compound concentration 10.0 uM, Protein concentration 2.0 uM
# [19] = target: T1, Bromodomain-containing protein 4; conditions: Compound concentration 10.0 uM, Protein concentration 2.0 uM
# [20] = target: Bromodomain-containing protein 9 (Homo sapiens) (UniProt Q9H8M2); conditions: Compound concentration 10.0 uM, Protein concentration 2.0 uM
# [21] = target: Bromodomain testis-specific protein (Homo sapiens) (UniProt Q58F21); conditions: Compound concentration 10.0 uM, Protein concentration 2.0 uM
# [22] = target: Bromodomain testis-specific protein (Homo sapiens) (UniProt Q58F21); conditions: Compound concentration 10.0 uM, Protein concentration 2.0 uM; remark: listed apart in the source
# [23] = target: Bromodomain and PHD finger-containing protein 3 (Homo sapiens) (UniProt Q9ULD4); conditions: Compound concentration 10.0 uM, Protein concentration 2.0 uM
# [24] = target: Bromodomain and WD repeat-containing protein 1 (Homo sapiens) (UniProt Q9NSI6); conditions: Compound concentration 10.0 uM, Protein concentration 2.0 uM
# [25] = target: Bromodomain and WD repeat-containing protein 3 (Homo sapiens) (UniProt Q6RI45); conditions: Compound concentration 10.0 uM, Protein concentration 2.0 uM
# [26] = target: Chromatin remodeling regulator CECR2 (Homo sapiens) (UniProt Q9BXF3); conditions: Compound concentration 10.0 uM, Protein concentration 2.0 uM
# Sequence of Chromatin remodeling regulator CECR2 (Homo sapiens) (Q9BXF3 whole entry, looked up): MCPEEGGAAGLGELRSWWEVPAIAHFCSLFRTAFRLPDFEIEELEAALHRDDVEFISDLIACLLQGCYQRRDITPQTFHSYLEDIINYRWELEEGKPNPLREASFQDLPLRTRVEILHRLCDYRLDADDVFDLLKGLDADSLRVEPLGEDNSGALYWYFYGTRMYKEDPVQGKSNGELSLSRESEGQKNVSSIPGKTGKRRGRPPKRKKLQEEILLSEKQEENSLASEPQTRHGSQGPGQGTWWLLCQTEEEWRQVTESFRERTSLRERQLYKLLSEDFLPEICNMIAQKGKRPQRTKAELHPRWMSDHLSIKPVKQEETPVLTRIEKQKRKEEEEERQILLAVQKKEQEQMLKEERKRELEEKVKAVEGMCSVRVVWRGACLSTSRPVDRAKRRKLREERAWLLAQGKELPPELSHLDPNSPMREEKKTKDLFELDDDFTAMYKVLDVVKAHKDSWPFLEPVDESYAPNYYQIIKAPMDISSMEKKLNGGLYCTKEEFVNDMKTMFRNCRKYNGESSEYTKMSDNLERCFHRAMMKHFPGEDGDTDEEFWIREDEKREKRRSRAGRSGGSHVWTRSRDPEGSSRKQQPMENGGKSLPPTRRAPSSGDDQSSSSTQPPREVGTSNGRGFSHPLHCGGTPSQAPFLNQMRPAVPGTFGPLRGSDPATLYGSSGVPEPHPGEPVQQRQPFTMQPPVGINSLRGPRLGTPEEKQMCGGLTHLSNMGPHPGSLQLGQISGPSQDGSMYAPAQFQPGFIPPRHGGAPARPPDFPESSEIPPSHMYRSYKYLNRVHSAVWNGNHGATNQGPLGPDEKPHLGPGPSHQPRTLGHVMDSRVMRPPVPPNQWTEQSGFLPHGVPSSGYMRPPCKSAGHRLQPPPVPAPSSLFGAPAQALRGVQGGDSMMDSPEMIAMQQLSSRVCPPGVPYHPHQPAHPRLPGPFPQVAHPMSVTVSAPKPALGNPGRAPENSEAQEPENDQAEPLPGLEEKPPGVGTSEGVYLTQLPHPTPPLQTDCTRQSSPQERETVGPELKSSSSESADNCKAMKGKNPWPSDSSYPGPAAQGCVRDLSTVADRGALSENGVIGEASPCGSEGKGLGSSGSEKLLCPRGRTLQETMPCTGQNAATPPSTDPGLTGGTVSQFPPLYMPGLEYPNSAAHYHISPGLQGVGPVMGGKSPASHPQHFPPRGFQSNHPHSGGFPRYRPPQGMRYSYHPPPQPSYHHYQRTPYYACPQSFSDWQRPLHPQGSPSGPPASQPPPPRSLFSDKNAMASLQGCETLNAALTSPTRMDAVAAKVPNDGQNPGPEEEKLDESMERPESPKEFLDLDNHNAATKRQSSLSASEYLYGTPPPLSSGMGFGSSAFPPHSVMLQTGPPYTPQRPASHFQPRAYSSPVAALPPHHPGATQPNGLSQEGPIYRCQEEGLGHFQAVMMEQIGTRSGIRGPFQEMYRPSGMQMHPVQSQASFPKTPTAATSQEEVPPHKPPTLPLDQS
# CREB-binding protein [27] = target: T2, CREB-binding protein; conditions: Compound concentration 10.0 uM, Protein concentration 2.0 uM
# [28] = target: Histone acetyltransferase p300 (Homo sapiens) (UniProt Q09472); conditions: Compound concentration 10.0 uM, Protein concentration 2.0 uM
# [29] = target: Histone acetyltransferase KAT2A (Homo sapiens) (UniProt Q92830); conditions: Compound concentration 10.0 uM, Protein concentration 2.0 uM
# [30] = target: Histone acetyltransferase KAT2B (Homo sapiens) (UniProt Q92831); conditions: Compound concentration 10.0 uM, Protein concentration 2.0 uM
# [31] = target: Protein polybromo-1 (Homo sapiens) (UniProt Q86U86); conditions: Compound concentration 10.0 uM, Protein concentration 2.0 uM
# [32] = target: Protein polybromo-1 (Homo sapiens) (UniProt Q86U86); conditions: Compound concentration 10.0 uM, Protein concentration 2.0 uM; remark: listed apart in the source
# [33] = target: Protein polybromo-1 (Homo sapiens) (UniProt Q86U86); conditions: Compound concentration 10.0 uM, Protein concentration 2.0 uM; remark: listed apart in the source
# [34] = target: Protein polybromo-1 (Homo sapiens) (UniProt Q86U86); conditions: Compound concentration 10.0 uM, Protein concentration 2.0 uM; remark: listed apart in the source
# [35] = target: PH-interacting protein (Homo sapiens) (UniProt Q8WWQ0); conditions: Compound concentration 10.0 uM, Protein concentration 2.0 uM
# [36] = target: SWI/SNF-related matrix-associated actin-dependent regulator of chromatin subfamily A member 2 (Homo sapiens) (UniProt P51531); conditions: Compound concentration 10.0 uM, Protein concentration 2.0 uM
# [37] = target: SWI/SNF-related matrix-associated actin-dependent regulator of chromatin subfamily A member 4 (Homo sapiens) (UniProt P51532); conditions: Compound concentration 10.0 uM, Protein concentration 2.0 uM
# [38] = target: Nuclear body protein SP140 (Homo sapiens) (UniProt Q13342); conditions: Compound concentration 10.0 uM, Protein concentration 2.0 uM
# [39] = target: Nuclear body protein SP140-like protein (Homo sapiens) (UniProt Q9H930); conditions: Compound concentration 10.0 uM, Protein concentration 2.0 uM
# [40] = target: Transcription initiation factor TFIID subunit 1 (Homo sapiens) (UniProt P21675); conditions: Compound concentration 10.0 uM, Protein concentration 2.0 uM
# [41] = target: Transcription initiation factor TFIID subunit 1 (Homo sapiens) (UniProt P21675); conditions: Compound concentration 10.0 uM, Protein concentration 2.0 uM; remark: listed apart in the source
# [42] = target: Transcription initiation factor TFIID subunit 1-like (Homo sapiens) (UniProt Q8IZX4); conditions: Compound concentration 10.0 uM, Protein concentration 2.0 uM
# [43] = target: Transcription initiation factor TFIID subunit 1-like (Homo sapiens) (UniProt Q8IZX4); conditions: Compound concentration 10.0 uM, Protein concentration 2.0 uM; remark: listed apart in the source
# [44] = target: Transcription intermediary factor 1-alpha (Homo sapiens) (UniProt O15164); conditions: Compound concentration 10.0 uM, Protein concentration 2.0 uM
# [45] = target: Transcription intermediary factor 1-beta (Homo sapiens) (UniProt Q13263); conditions: Compound concentration 10.0 uM, Protein concentration 2.0 uM
# Peregrin (Homo sapiens) = Peregrin (Homo sapiens) (UniProt P55201); conditions: Compound concentration 10.0 uM, Protein concentration 2.0 uM
compound,measurement,setting,value
CCC(=O)N1CCOc2c(cc(-c3ccc(OC)c(OC)c3)cc2OC[C@H]2CCCN(C)C2)C1,IC50,[1],2460 nM
same,IC50,CREB-binding protein [2],324 nM
same,ΔTm,[3],1.35 °C and 2.27 °C
same,ΔTm,[4],1.87 °C
same,ΔTm,[5],1.11 °C
same,ΔTm,[6],0.65 °C
same,inhibition,[7],11.6% and 13.1%
same,ΔTm,[8],0.59 °C
same,ΔTm,[9],0.94 °C
same,ΔTm,[10],0.16 °C
same,ΔTm,[11],1.83 °C
same,ΔTm,[12],0.84 °C
same,ΔTm,[13],0.11 °C and 0.34 °C
same,ΔTm,[14],0.75 °C
same,ΔTm,[15],0.86 °C
same,ΔTm,[16],2.1 °C and 1.08 °C
same,ΔTm,[17],1.23 °C
same,ΔTm,[18],1.01 °C and 1.27 °C
same,ΔTm,[19],0.77 °C and 0.68 °C
same,ΔTm,[20],0.93 °C
same,ΔTm,[21],0.73 °C
same,ΔTm,[22],0.3 °C
same,ΔTm,[23],0.92 °C
same,ΔTm,[24],0.28 °C
same,ΔTm,[25],1.86 °C
same,ΔTm,[26],0.59 °C
same,ΔTm,CREB-binding protein [27],6.8 °C and 8.01 °C and 8.5 °C
same,ΔTm,[28],8.99 °C
same,ΔTm,[29],0.84 °C
same,ΔTm,[30],-0.01 °C and 0.36 °C
same,ΔTm,[31],0.4 °C and 0.01 °C
same,ΔTm,[32],-0.05 °C
same,ΔTm,[33],0.34 °C
same,ΔTm,[34],0.53 °C
same,ΔTm,[35],1.07 °C
same,ΔTm,[36],0.19 °C
same,ΔTm,[37],0.56 °C
same,ΔTm,[38],0.16 °C
same,ΔTm,[39],1.3 °C
same,ΔTm,[40],0.18 °C
same,ΔTm,[41],0.37 °C
same,ΔTm,[42],0.65 °C
same,ΔTm,[43],0.3 °C
same,ΔTm,[44],0.77 °C
same,ΔTm,[45],0.1 °C
same,ΔTm,Peregrin (Homo sapiens),0.86 °C

# Reference: ChEMBL document CHEMBL4649985, “Generation of a Selective Small Molecule Inhibitor of the CBP/p300 Bromodomain for Leukemia Therapy” (Cancer Res, 2015)
